Results from paper PMC9823356, “Inhibition of Cancer Cell Proliferation and Bacterial Growth by Silver(I) Complexes Bearing a CH3-Substituted Thiadiazole-Based Thioamide” (Molecules, 2023).
Where two headings read alike, the source gives them in different places.

Columns and labels:
[1] = system: Escherichia coli (E. coli); test: In vitro antibacterial activity, progressive double dilutions, culture turbidity; type: cell-based
Description: (§1) The growth of bacteria was estimated by measuring the turbidity of the culture, as previously reported. […] The pH of the media was adjusted to 7.0.

[2] = system: Bacillus subtilis (B. subtilis); test: as above; type: cell-based
Description: as §1

[3] = system: Bacillus cereus (B. cereus); test: as above; type: cell-based
Description: as §1

[4] = system: Staphylococcus aureus (S. aureus); test: as above; type: cell-based
Description: as §1

[5] = system: EB–DNA conjugate (CT DNA); test: EB-DNA competitive binding, fluorescence quenching; parameters: species or system calf
Description: The potential EB-displacing ability of the compounds was studied by a stepwise addition of a compound’s solution into the EB–DNA solution. The resultant changes were monitored by recording the variation of fluorescence emission spectra with excitation wavelength at 540 nm. […] The Stern-Volmer constant (KSV, in M^−1) is used to evaluate the quenching efficiency for each compound according to the Stern-Volmer equation (Equation (2)):(2) Io/I=1+kqτ0[Q]=1+KSV[Q] where Io and I are the emission intensities of the EB–DNA solution in the absence and the presence of the quencher, respectively, [Q] is the concentration of the quencher, τo = the average lifetime of the emitting system without the quencher and kq = the quenching constant. KSV may be obtained from the Stern-Volmer plots by the slope of the diagram Io/I versus [Q]. Taking τo = 23 ns as the fluorescence lifetime of the EB–DNA system, the quenching constants (kq, in M^−1s^−1) of the compounds can be determined according to Equation (3):KSV = kqτo(3)

[6] = system: calf-thymus (CT) DNA; test: DNA viscosity measurements; type: binding
Protocol: All measurements were performed at room temperature. The obtained data are presented as (η/η0)^1/3 versus r where η is the viscosity of DNA in the presence of the studied compound, η0 is the viscosity of DNA alone in buffer solution and r = [complex]/[DNA]. DNA-length (L/L0), according to the equation L/L0 = (η/η0)^1/3. […] In the particular case of intercalation, an increase in the separation distance of the DNA-base pairs can be induced in order to host the inserting compound resulting in an increase of the relative DNA-viscosity. On the other hand, when a compound binds to DNA-grooves via non-classic intercalation (i.e., electrostatic interaction or external groove-binding) the DNA-viscosity may show a slight decrease or remain unchanged, because of a bend of DNA double helix which leads to shortening of DNA length.

[7] = value in parentheses, mean ± SD, read-out: IC50

[Ag(mtdztH)(dppe)(NO3)]n [Compound 4]
IC50 [1]: 11 µg/mL | MIC ([1]; ampicillin reference against E.coli (BL21)): higher than 100 μg/mL | MIC ([1]; value in parentheses): 91 μΜ | IC50 [1, 7]: 15.4 ± 2.4 µM | IC50 [2]: 4.9 µg/mL | MIC [2]: 30 µg/mL | MIC ([2]; value in parentheses): 27 μΜ | IC50 [2, 7]: 4.5 ± 0.8 µM | IC50 [3]: 5 µg/mL | MIC [3]: 50 µg/mL | MIC ([3]; value in parentheses): 45 μΜ | IC50 [3, 7]: 4.6 ± 0.7 µM | IC50 [4]: 8 µg/mL | MIC [4]: 50 µg/mL | MIC ([4]; value in parentheses): 45 μΜ | IC50 [4, 7]: 7.3 ± 1.6 µM | EB-DNA Stern–Volmer constant KSV [5]: 5.68 (±0.20) × 10^4 M^−1 | EB–DNA fluorescence quenching ΔI/Iο ([5]; λex 540 nm): 27.6% | relative DNA viscosity change ([6]; higher concentrations, r > 0.15): moderate increase | relative DNA viscosity change ([6]; low concentrations, up to r = 0.15): remained almost unchanged
